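Values below derive from 48-hour exposures of cells grown in 96-well plates, with endpoints linearly interpolated between the two concentrations bracketing the appropriate inhibition level. GI50 marks 50% less growth.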 Activity calls are given as the source filed them. Rule as the data show it: active = GI50 up to about 1.1 µM and inactive = higher.
What was measured:
Assay in all cases: growth of human tumour cells (NCI), 48 h
786-0 = system: 786-0
A498 = system: A498
A549 = system: A549
ACHN = system: ACHN
BT-549 = system: BT-549
CAKI-1 = system: CAKI-1
CCRF-CEM = system: CCRF-CEM
COLO 205 = system: COLO 205
DU-145 = system: DU-145
EKVX = system: EKVX
HCC 2998 = system: HCC 2998
HCT-116 = system: HCT-116
HCT-15 = system: HCT-15
HL-60 = system: HL-60
HOP-92 = system: HOP-92
HT-29 = system: HT-29
Hs-578T = system: Hs-578T
IGROV-1 = system: IGROV-1
K562 = system: K562
KM12 = system: KM12
LOX IMVI = system: LOX IMVI
M14 = system: M14
MCF7 = system: MCF7
MDA-MB-231 = system: MDA-MB-231
MDA-MB-435 = system: MDA-MB-435
MDA-N = system: MDA-N
Malme-3M = system: Malme-3M
NCI-H226 = system: NCI-H226
NCI-H23 = system: NCI-H23
NCI-H460 = system: NCI-H460
NCI-H522 = system: NCI-H522
NCI/ADR-RES = system: NCI/ADR-RES
OVCAR-4 = system: OVCAR-4
OVCAR-5 = system: OVCAR-5
OVCAR-8 = system: OVCAR-8
PC-3 = system: PC-3
SF-268 = system: SF-268
SF-295 = system: SF-295
SF-539 = system: SF-539
SK-MEL-28 = system: SK-MEL-28
SK-MEL-2 = system: SK-MEL-2
SK-MEL-5 = system: SK-MEL-5
SK-OV-3 = system: SK-OV-3
SN12C = system: SN12C
SNB-19 = system: SNB-19
SNB-75 = system: SNB-75
SR = system: SR
SW-620 = system: SW-620
T47D = system: T47D
TK-10 = system: TK-10
U-251 = system: U-251
UACC-257 = system: UACC-257
UACC-62 = system: UACC-62
UO-31 = system: UO-31

With `CC1(O)CC23CC1CCC2(C)C12CCCC(C)(C(=O)O1)C2CC3O` (centres undefined) the GI50 (786-0) was > 100 µM (inactive), the GI50 (A498) was > 100 µM (inactive) and the GI50 (A549) was > 100 µM (inactive). For the same molecule, the GI50 (ACHN) was > 100 µM (inactive), the GI50 (BT-549) was > 100 µM (inactive) and the GI50 (CAKI-1) was > 100 µM (inactive). For the same molecule, the GI50 (CCRF-CEM) was > 100 µM (inactive), the GI50 (COLO 205) was > 100 µM (inactive) and the GI50 (DU-145) was > 100 µM (inactive). The GI50 (EKVX) was > 100 µM (inactive), the GI50 (HCC 2998) was > 100 µM (inactive) and the GI50 (HCT-116) was > 100 µM (inactive). The GI50 (HCT-15) was > 100 µM, the GI50 (HL-60) was > 10 µM (inactive) and the GI50 (HOP-92) was > 100 µM (inactive). For the same molecule, the GI50 (HT-29) was > 100 µM (inactive), the GI50 (Hs-578T) was > 100 µM (inactive) and the GI50 (IGROV-1) was > 100 µM (inactive). The GI50 (K562) was > 100 µM (inactive), the GI50 (KM12) was > 100 µM (inactive) and the GI50 (LOX IMVI) was > 100 µM (inactive). For the same molecule, the GI50 (M14) was > 100 µM (inactive), the GI50 (MCF7) was > 100 µM (inactive) and the GI50 (MDA-MB-231) was > 100 µM (inactive). For the same molecule, the GI50 (MDA-MB-435) was > 100 µM (inactive), the GI50 (MDA-N) was > 100 µM (inactive) and the GI50 (Malme-3M) was > 100 µM (inactive). For the same molecule, the GI50 (NCI-H226) was > 100 µM (inactive), the GI50 (NCI-H23) was > 100 µM (inactive) and the GI50 (NCI-H460) was > 100 µM (inactive). The GI50 (NCI-H522) was > 100 µM (inactive), the GI50 (NCI/ADR-RES) was > 100 µM (inactive) and the GI50 (OVCAR-4) was > 100 µM (inactive). For the same molecule, the GI50 (OVCAR-5) was > 100 µM (inactive), the GI50 (OVCAR-8) was > 100 µM (inactive) and the GI50 (PC-3) was > 100 µM (inactive). For the same molecule, the GI50 (SF-268) was > 100 µM (inactive), the GI50 (SF-295) was > 100 µM (inactive) and the GI50 (SF-539) was > 100 µM (inactive). The GI50 (SK-MEL-28) was > 100 µM (inactive), the GI50 (SK-MEL-2) was > 100 µM (inactive) and the GI50 (SK-MEL-5) was > 100 µM (inactive). The GI50 (SK-OV-3) was > 100 µM (inactive), the GI50 (SN12C) was > 100 µM (inactive) and the GI50 (SNB-19) was > 100 µM (inactive). The GI50 (SNB-75) was > 100 µM (inactive), the GI50 (SR) was > 100 µM (inactive) and the GI50 (SW-620) was > 100 µM (inactive). For the same molecule, the GI50 (T47D) was > 100 µM (inactive), the GI50 (TK-10) was > 100 µM (inactive) and the GI50 (U-251) was > 100 µM (inactive). The GI50 (UACC-257) was > 100 µM (inactive), the GI50 (UACC-62) was > 100 µM (inactive) and the GI50 (UO-31) was > 100 µM (inactive).
